The text below walks through data of ChEMBL document CHEMBL4842376, “Design, synthesis and biological evaluation of novel hybrids targeting mTOR and HDACs for potential treatment of hepatocellular carcinoma” (Eur J Med Chem, 2021).

For assay [1], the system named is HepG2. The assay is described as follows: Induction of apoptosis in human HepG2 cells assessed as early apoptotic cells at 2.5 uM measured after 24 hrs by Annexin V-FITC/PI staining based flow cytometry analysis (Rvb= 6.15%). In kind it is functional. In general terms: A flow cytometer gives signals particle by particle.
The target of assay [2] is T1, Serine/threonine-protein kinase mTOR (Homo sapiens, UniProt P42345). As to the kind of experiment: Inhibition of mTOR in human HepG2 cells assessed as reduction in phosphorylation of p70S6K measured after 24 hrs by western blot analysis. In kind it is cell-based. To be noted: dose 1.5-6 µM.
For assay [3], the system named is HepG2. The assay is described as follows: Induction of cell cycle arrest in human HepG2 cells assessed as accumulation of cells in G0/G1 phase at 1.5 uM measured after 24 hrs by propidium iodide staining based flow cytometry analysis (reference value: 52.7 to 63.2%). Format: functional.
The test system of another assay is CNE-2. As to the kind of experiment: cells. The settings on record: Homo sapiens, CNE-2, 72 h. In kind it is functional, cell-based.
The target in assay [4] is T1, Serine/threonine-protein kinase mTOR. As to the kind of experiment: Inhibition of mTOR in human HepG2 cells assessed as reduction in phosphorylation of 4EBP1 measured after 24 hrs by western blot analysis. Format: cell-based. To be noted: dose 1.5-6 µM. On the technique in general: In western blotting, separated proteins are transferred to a membrane and probed.
Assay [5] relates to HepG2. The assay is described as follows: Induction of cell cycle arrest in human HepG2 cells assessed as accumulation of cells in S phase at 1.5 uM measured after 24 hrs by propidium iodide staining based flow cytometry analysis (Rvb= 17 to 26.4%). Format: functional.
A further assay deals with Huh-7. As to the kind of experiment: cells. The settings on record: Homo sapiens, Huh-7, 72 h. In kind it is functional, cell-based.
Assay [6] addresses Histone deacetylase (Homo sapiens) (UniProt Q13547+O15379+Q9UBN7+Q92769+Q9UQL6+Q8WUI4+Q9BY41+Q96DB2+P56524+Q9UKV0+Q969S8). The assay is described as follows: Inhibition of HDAC in human HepG2 cells assessed as upregulation of alpha-tubulin acetylation at 6 uM measured after 24 hrs by western blot analysis. In kind it is cell-based.
For assay [7], the system named is HepG2. The assay is described as follows: Induction of apoptosis in human HepG2 cells assessed as early apoptotic cells at 5 uM measured after 24 hrs by Annexin V-FITC/PI staining based flow cytometry analysis (Rvb= 6.15%). Format: functional.
In assay [8] the target is T1, Serine/threonine-protein kinase mTOR. The assay is described as follows: Activation of mTOR in human HepG2 cells assessed as increase in 4EBP1 phosphorylation at 1.5 uM measured after 24 hrs by western blot analysis. Format: cell-based. The settings on record: filed as activator.
The target is the same in assay [9]. The assay is described as follows: Activation of mTOR in human HepG2 cells assessed as increase in p70S6K phosphorylation at 1.5 uM measured after 24 hrs by western blot analysis. In kind it is cell-based. The settings on record: filed as activator.

A word on the IC50: it is the concentration that inhibits the measured activity by half. Lower therefore signals inhibition by little substance.

The source made the active and inactive calls. The rule behind the calls is not given here.

Description for CNE-2: Antiproliferative activity against human CNE-2 cells assessed as inhibition of cell growth measured after 72 hrs by MTT assay
Description for Huh-7: Antiproliferative activity against human Huh-7 cells assessed as inhibition of cell growth measured after 72 hrs by MTT assay

Turning to `Nc1nc2cc(-c3nn(CCCCCCC(=O)NO)c4ncnc(N)c34)ccc2o1`, the Activity worked out at 28.1% in the assay on HepG2 [1], 66.2% with HepG2 [3], 16.4% in the assay on HepG2 [5] and 15.3% in the assay with HepG2 [7]. The inhibition result in assay [2] and in assay [4] was “Dose-Dependent Effect” throughout. Moreover, the IC50 in the assay with CNE-2 was 4.36 µM; with Huh-7, 5.71 µM. The inhibition entry in assay [6] is “Active”.
Consider `Nc1ncnc2c1c(-c1cnc3[nH]ccc3c1)nn2CCCCCCCCC(=O)NO`, for which the Activity in the assay with HepG2 [1] is 17.4%; with HepG2 [3] it was 60.1%; in the assay on HepG2 [5], 20.2%; in the assay with HepG2 [7] it was 12%. For the same molecule, the outcome in assay [8] and in assay [9] was Active. The IC50 in the assay with CNE-2 came out at 2.27 µM; in the assay on Huh-7, 7.38 µM. In addition, the inhibition entry in assay [6] is “Active”.
